Results published in patent EP4653445A1, “CDK INHIBITOR AND CRYSTAL FORM OF PHARMACEUTICALLY ACCEPTABLE SALT THEREOF, AND USE THEREOF” (CSPC Zhongqi Pharmaceutical Technology (Shijiazhuang) Co., …, priority 2023, dated 2024).

Experiments:
[1] = Grinding or crushing of the crystalline form; assay type: physicochemical
Excerpt: Table 28 Results of Stability Test

[2] = Stability test, samples placed open for 7 days (HPLC and XRPD); assay type: physicochemical; details: HPLC
[3] = Dynamic vapor sorption (DVS) test; assay type: physicochemical; details: DVS
Procedure: • Instrument: TA Instruments Q5000 SA • Detection method: 20 to 50 mg of the sample was placed in a tared sample basket and automatically weighed, and DVS testing was performed according to the parameters in Table 7: Step Time: 60 min; Equilibration Time per RH%: 1 hour; Total Gas Flow Rate: 200 sccm; Gradient mode: 0%-90%-0% humidity variation, with a humidity variation amount of 10% for each gradient level between 0% and 90%, and gradient endpoint was determined by dm/dt < 0.01% maintained for 10 minutes.

[4] = Accelerated stability testing; assay type: physicochemical; details: 40°C±2°C/75%±5%RH, simulated commercial packaging
[5] = Stress testing (high temperature, high humidity, illumination); assay type: physicochemical
[6] = Long-term stability testing; assay type: physicochemical; details: 25°C±2°C/60%±5%RH, simulated commercial packaging
[7] = Stability test, samples placed open for 7 days (HPLC and XRPD); assay type: physicochemical; details: for XRPD-7days / Purity (Peak area%) 7 days: open
Excerpt: Subsequently, the samples after 7 days were respectively detected by HPLC and XRPD to determine their chemical and physical stabilities.

[8] = Solubility comparison in water, SGF, FaSSIF and FeSSIF (HPLC of filtrates, XRPD of filter cakes); details: SGF, time not stated
[9] = High Humidity (92.5% RH), 7 days
[10] = High Humidity (92.5% RH), 14 days
[11] = High Humidity (92.5% RH), 30 days
[12] = High Temperature (60°C), 7 days
[13] = High Temperature (60°C), 14 days
[14] = High Temperature (60°C), 30 days
[15] = Illumination Testing 4500lx±500lx, 7 days
[16] = Illumination Testing 4500lx±500lx, 14 days
[17] = Illumination Testing 4500lx±500lx, 30 days

CC(=O)c1c(C)c2cnc(Nc3ccc4c(c3)OC[C@@H]3CN(C5CCN(C)CC5)CCN43)nc2n(C2CCCC2)c1=O [crystalline form A-I of the free base of compound A]
crystalline form after grinding or crushing [1]: remained unchanged
Purity (Peak area%) 0 day [2]: 99.16 Peak area%
hygroscopic properties ([3]; 0%-90% RH): non-hygroscopic
weight change ([3]; across 0%-90% RH): approximately 0.17%
description, loss on drying, relevant substances, crystalline form and content compared with 0 month ([4]; 6 months): basically the same
Description Appearance ([4]; 0 months): Yellow solid
Measured content (%) ([4]; 0 months): 99.5%
Total impurities (%) ([4]; 0 months): 0.84%
crystalline form ([4]; 0 months): crystalline form A-I of free base
loss on drying (%) ([4]; 0 months): 0.03%
Description Appearance ([4]; 1 month): Yellow solid
Measured content (%) ([4]; 1 month): 100.4%
Total impurities (%) ([4]; 1 month): 0.80%
loss on drying (%) ([4]; 1 month): 0.04%
Description Appearance ([4]; 2 months): Yellow solid
Measured content (%) ([4]; 2 months): 100.8%
Total impurities (%) ([4]; 2 months): 0.82%
loss on drying (%) ([4]; 2 months): 0.02%
Description Appearance ([4]; 3 months): Yellow solid
Measured content (%) ([4]; 3 months): 100.6%
Total impurities (%) ([4]; 3 months): 0.85%
crystalline form ([4]; 3 months): Unchanged
loss on drying (%) ([4]; 3 months): 0.02%
Description Appearance ([4]; 6 months): Yellow solid
Measured content (%) ([4]; 6 months): 100.9%
Total impurities (%) ([4]; 6 months): 0.77%
crystalline form ([4]; 6 months): Unchanged
loss on drying (%) ([4]; 6 months): 0.08%
Content (%) ([5]; 0 Day): 99.5%
Description Appearance ([5]; 0 Day): Yellow solid
Total impurities (%) ([5]; 0 Day): 0.84%
crystalline form ([5]; 0 Day): crystalline form A-I of free base
loss on drying (%) ([5]; 0 Day): 0.03%
Content (%) [5, 9]: 100.2%
Description Appearance [5, 9]: Yellow solid
Hygroscopic weight gain (%) [5, 9]: 0.03%
Total impurities (%) [5, 9]: 0.76%
loss on drying (%) [5, 9]: 0.06%
Content (%) [5, 10]: 99.6%
Description Appearance [5, 10]: Yellow solid
Hygroscopic weight gain (%) [5, 10]: 0.05%
Total impurities (%) [5, 10]: 0.78%
loss on drying (%) [5, 10]: 0.07%
Content (%) [5, 11]: 101.0%
Description Appearance [5, 11]: Yellow solid
Hygroscopic weight gain (%) [5, 11]: 0.09%
Total impurities (%) [5, 11]: 0.87%
crystalline form [5, 11]: Unchanged
loss on drying (%) [5, 11]: 0.05%
Content (%) [5, 12]: 100.4%
Description Appearance [5, 12]: Yellow solid
Total impurities (%) [5, 12]: 0.76%
loss on drying (%) [5, 12]: 0.05%
Content (%) [5, 13]: 100.6%
Description Appearance [5, 13]: Yellow solid
Total impurities (%) [5, 13]: 0.83%
loss on drying (%) [5, 13]: 0.05%
Content (%) [5, 14]: 100.1%
Description Appearance [5, 14]: Yellow solid
Total impurities (%) [5, 14]: 0.81%
crystalline form [5, 14]: Unchanged
loss on drying (%) [5, 14]: 0.03%
Content (%) [5, 15]: 101.0%
Description Appearance [5, 15]: Yellow solid
Total impurities (%) [5, 15]: 0.76%
loss on drying (%) [5, 15]: 0.07%
Content (%) [5, 16]: 100.2%
Description Appearance [5, 16]: Yellow solid
Total impurities (%) [5, 16]: 0.79%
loss on drying (%) [5, 16]: 0.06%
Content (%) [5, 17]: 100.2%
Description Appearance [5, 17]: Yellow solid
Total impurities (%) [5, 17]: 0.84%
crystalline form [5, 17]: Unchanged
loss on drying (%) [5, 17]: 0.07%
stability in stress testing (conclusion) ([5]; high temperature, high humidity and illumination conditions): good stability
stability under illumination ([5]; illuminance 4500 lx±500 lx, total not less than 1.2×10^6 lux·hr, near-UV not less than 200 W·hr/m^2): relatively stable
description, loss on drying, relevant substances, crystalline form and content compared with 0 month ([6]; 18 months): basically the same
Description Appearance ([6]; 0 months): Yellow solid
Measured content (%) ([6]; 0 months): 99.5%
Total impurities (%) ([6]; 0 months): 0.84%
crystalline form ([6]; 0 months): crystalline form A-I of free base
loss on drying (%) ([6]; 0 months): 0.03%
Description Appearance ([6]; 3 months): Yellow solid
Measured content (%) ([6]; 3 months): 100.8%
Total impurities (%) ([6]; 3 months): 0.89%
crystalline form ([6]; 3 months): Unchanged
loss on drying (%) ([6]; 3 months): 0.02%
Description Appearance ([6]; 6 months): Yellow solid
Measured content (%) ([6]; 6 months): 100.6%
Total impurities (%) ([6]; 6 months): 0.75%
crystalline form ([6]; 6 months): Unchanged
loss on drying (%) ([6]; 6 months): 0.05%
Description Appearance ([6]; 9 months): Yellow solid
Measured content (%) ([6]; 9 months): 99.6%
Total impurities (%) ([6]; 9 months): 0.73%
crystalline form ([6]; 9 months): Unchanged
loss on drying (%) ([6]; 9 months): 0.05%
Description Appearance ([6]; 12 months): Yellow solid
Measured content (%) ([6]; 12 months): 100.8%
Total impurities (%) ([6]; 12 months): 0.78%
crystalline form ([6]; 12 months): Unchanged
loss on drying (%) ([6]; 12 months): 0.05%
Description Appearance ([6]; 18 months): Yellow solid
Measured content (%) ([6]; 18 months): 98.7%
Total impurities (%) ([6]; 18 months): 0.71%
crystalline form ([6]; 18 months): Unchanged
loss on drying (%) ([6]; 18 months): 0.03%
XRPD-7days ([7]; 40°C /75%RH): Unchanged
Purity (Peak area%) 7 days ([7]; 40°C /75%RH, HPLC): 99.20 Peak area%
chemical stability ([7]; 60 °C, 92.5% RH and 40 °C/75% RH for 7 days, HPLC): chemically stable
XRPD-7days ([7]; 60°C): Unchanged
Purity (Peak area%) 7 days ([7]; 60°C, HPLC): 99.24 Peak area%
XRPD-7days ([7]; 92.5%RH): Unchanged
Purity (Peak area%) 7 days ([7]; 92.5%RH, HPLC): 99.24 Peak area%
crystalline form (XRPD) after 7 days ([7]; under the three conditions 60 °C, 92.5% RH and 40 °C/75% RH): remained unchanged
solubility in SGF [8]: more than 5 mg/mL
